{
  "source": "patent US20110237560A1",
  "about": "“MODULATING AND/OR DETECTING ACTIVATION INDUCED DEAMINASE AND METHODS OF USE THEREOF” (priority 2010, published 2011)",
  "key": {"[1]": {"system": "DT40 cells", "assay": "DT40 cell growth under chronic Hsp90 inhibition", "type": "cell-based, chicken", "details": "chronic low doses", "description": "The median obtained for populations treated in each condition is indicated. […] Mean+SD values for the seven populations in each condition are plotted (middle panel). […] An identical experiment to (A) was performed except that the less toxic 17-AAG was used to inhibit Hsp90. […] The effect of the two 17-AAG concentrations used on DT40 growth was monitored by calculating the total number of cells in populations originating from 10^5 cells (left panel). The data plotted is the mean+SD of triplicate cultures for each condition. […] The quantitation of AID levels (middle panel) and cell growth curves (right panel) were done as in (B)."}, "[2]": {"system": "IgVlambda region", "assay": "Somatic hypermutation in DT40 cells by sequencing of IgVlambda", "details": "0.1 microM"}, "[3]": {"system": "AID-GFP", "assay": "Monitoring of AID stability: GFP signal (MFI) by flow cytometry in Ramos transfectants", "type": "cell-based, human", "details": "for degradation of AID-GFP induced by Hsp90 inhibition, with proteasome inhibitor: stable transfectants of Ramos and DT40 cells, 10 microM MG132", "experimental": "(§1) One of two experiments is shown. […] (D) AID stabilization by Hsp90 requires protein-protein interaction. […] Dead cells were excluded by propidium iodide staining. […] One of five independent experiments is shown. […] (D) and (F) are representative of three different experiments.\n(A) AID degradation following Hsp90 inhibition is distinct from nuclear AID degradation. Ramos cells stably expressing AID-GFP were treated in triplicate with DMSO (Ctrl), 2 microM GA and/or 50 ng/mL leptomycin B (LMB) and the GFP signal was monitored over time by flow cytometry. The MFI normalized to t0=100% is plotted for each treatment. Dead cells were excluded by propidium iodide staining. One out of five identical experiments is shown. […] Ramos cells stably expressing AID-GFP pretreated with 100 ng/mL cycloheximide (CHX), a known protein synthesis inhibitor, for 1 h were treated and analyzed as in (A). One out of four identical experiments is shown. (C) Cytoplasmic destabilization of AID following Hsp90 inhibition. Analogous experiments to those in A and B were performed on Ramos cells stably expressing GFP-AID, which was previously shown to be unable to enter the nucleus (probably because the N-terminal fusion of GFP to AID masks the NLS)^28. One out of three identical experiments is shown. (D) AID degradation following Hsp90 inhibition requires the proteasome. Ramos cells stably expressing AID-GFP were treated with DMSO (Ctrl), 2 microM 17-MG and 10 microM MG132, a known specific proteasome inhibitor, as indicated. The GFP signal was monitored and plotted as above. One out of five experiments is shown. (E) Lower AID steady-state levels induced by Hsp90 inhibition can be blocked by proteasome inhibition in B cell lymphoma lines. Human and chicken B-cell lines (Ramos and DT40 respectively) were treated with 2 microM GA and 10 microM MG132 and subsequently harvested as indicated. The cells were lyzed, fractionated on SDS-PAGE and blotted. Blots were probed with anti-AID and anti-actin. One out of two experiments is shown for each cell line. (F) Hsp90 inhibition enhances AID polyubiquitination. […] Immunoprecipitates were analyzed by western blot using anti-GFP and anti-ubiquitin antibodies. […] In the lower panel, the relative amount of polyubiquitinated AID was quantified by densitometry using ImageQuant™ and the relative value of three independent experiments for each Ramos, HeLa and primary mouse B cells was plotted+SD. […]\n(A) DT40 cells and (B) Hela aid−/− cells stably expressing AID-GFP were treated with the indicated combinations of DMSO (Ctrl), 2 microM GA, 50 ng/mL leptomycin B (LMB), a nuclear export inhibitor and/or 10 microM MG132, a proteasome inhibitor. The GFP signal was monitored by flow cytometry and the MFI normalized to the signal at t0 for each treatment. […]"}, "[4]": {"system": "endogenous AID", "assay": "Endogenous AID levels by western blot in B-cell lymphoma lines (Ramos, CH12-F3, DT40)", "type": "cell-based, human, mouse and chicken", "details": "Ramos and DT40; 2 microM GA and 10 microM MG132", "experimental": "as §1\n(A) AID degradation following Hsp90 inhibition is distinct from nuclear AID degradation. Ramos cells stably expressing AID-GFP were treated in triplicate with DMSO (Ctrl), 2 microM GA and/or 50 ng/mL leptomycin B (LMB) and the GFP signal was monitored over time by flow cytometry. The MFI normalized to t0=100% is plotted for each treatment. Dead cells were excluded by propidium iodide staining. […] Ramos cells stably expressing AID-GFP pretreated with 100 ng/mL cycloheximide (CHX), a known protein synthesis inhibitor, for 1 h were treated and analyzed as in (A). […] The GFP signal was monitored and plotted as above. […] Immunoprecipitates were analyzed by western blot using anti-GFP and anti-ubiquitin antibodies. […] In the lower panel, the relative amount of polyubiquitinated AID was quantified by densitometry using ImageQuant™ and the relative value of three independent experiments for each Ramos, HeLa and primary mouse B cells was plotted+SD.\nIn cell lines stably expressing GFP-tagged AID or AID mutants, the GFP fluorescence signal was measured by flow cytometry at various time points after the indicated treatments. […]"}, "[5]": {"system": "various cancer cell lines", "details": "cited from earlier work"}, "[6]": {"system": "Hsp90", "details": "cited from earlier work"}, "[7]": {"system": "AID mRNA", "details": "breast and ovarian tissue; cited from earlier work"}},
  "note": "Residues, ends and D or L forms follow the SMILES beside them. *: point of attachment. Cbz = O=C(OCc1ccccc1)*",
  "data": [
    {"compound": "C=CCNC1=C2C[C@@H](C)C[C@H](OC)[C@H](O)[C@@H](C)/C=C(\\C)[C@H](OC(N)=O)[C@@H](OC)/C=C\\C=C(/C)C(=O)NC(=CC1=O)C2=O", "note": "[17-AAG, 17-(Allylamino)-17-demethoxygeldanamycin]", "values": [
      {"measurement": "cell growth", "setting": "[1]", "value": "minimal impact on cell growth"},
      {"measurement": "decrease of mutation frequency versus controls", "setting": "[2]; 4 weeks", "value": "~5", "unit": "fold"},
      {"measurement": "mutation frequency of the IgVlambda region", "setting": "[2]; 4 weeks of growth, 10-11 clones per population", "value": "1.11×10^−3 mutations/base pair"}
    ]},
    {"compound": "C[C@@H]1C[C@@H]([C@H](O)CC2CC(=O)NC(=O)C2)C(=O)[C@@H](C)C1", "note": "[CHX, cycloheximide]", "values": [
      {"measurement": "decay of AID-GFP after protein synthesis inhibition", "setting": "[3]; Ramos, CHX alone", "value": "expected decay"}
    ]},
    {"compound": "COC1=C2C[C@@H](C)C[C@H](OC)[C@H](O)[C@@H](C)/C=C(\\C)[C@H](OC(N)=O)[C@@H](OC)/C=C\\C=C(/C)C(=O)NC(=CC1=O)C2=O", "note": "[GA, geldanamycin]", "values": [
      {"measurement": "cell growth", "setting": "[1]", "value": "delayed cell growth"}
    ]},
    {"compound": "CCC(=C/[C@H](C)C/C=C/C(C)=C/[C@@H](C)C(=O)[C@@H](C)[C@H](O)[C@@H](C)C/C(C)=C/C(=O)O)/C=C/[C@@H]1OC(=O)C=C[C@@H]1C", "note": "[LMB, leptomycin B]", "values": [
      {"measurement": "stability of GFP-AID (unable to enter the nucleus)", "setting": "[3]; Ramos expressing GFP-AID", "value": "not destabilized"}
    ]},
    {"compound": "CC(C)C[C@@H](C=O)NC(=O)[C@H](CC(C)C)NC(=O)[C@H](CC(C)C)NC(=O)OCc1ccccc1", "note": "[MG132] (Cbz-Leu-Leu-Leu-aldehyde)", "values": [
      {"measurement": "degradation of AID-GFP induced by Hsp90 inhibition, with proteasome inhibitor", "setting": "[3]", "value": "prevented the degradation of AID"},
      {"measurement": "degradation of endogenous AID induced by Hsp90 inhibition, with proteasome inhibitor", "setting": "[4]", "value": "prevented the degradation of AID"}
    ]},
    {"compound": "O=C1OCC/C=C/CC/C=C/C(=N/OCC(=O)N2CCCCC2)Cc2c(Cl)c(O)cc(O)c21", "note": "[NXD30001]", "values": [
      {"measurement": "potency in inhibiting cell growth in vitro compared to 17-MG and 17-DMAG", "setting": "[5]", "value": "enhanced"},
      {"measurement": "Hsp90 binding affinity compared to 17-MG and 17-DMAG", "setting": "[6]", "value": "enhanced"}
    ]},
    {"compound": "CC(=O)N[C@@H](CSC(=O)[C@]1([C@@H](O)C(C)C)NC(=O)[C@H](C)[C@@H]1O)C(=O)O", "note": "[lactacystin]", "values": [
      {"measurement": "degradation of AID-GFP induced by Hsp90 inhibition, with proteasome inhibitor", "setting": "[3]", "value": "Identical results"}
    ]},
    {"compound": "estrogen", "values": [
      {"measurement": "increase in AID mRNA production", "setting": "[7]", "value": "> 20", "unit": "fold"}
    ]}
  ]
}
